Data on one compound can be found in patent publication EP1935984A1 (priority 2006, dated 2008).

In experiment [1] the test system is mutant strain ATB004 (yhcA). As to the kind of experiment: microbe, parasite or virus in culture. The conditions noted are these: Bacillus subtilis, pH 6.4, read-out: GI% (growth inhibition). As to the method: (§1) To get a better understanding of the global response of Bacillus subtilis enduring sorbic acid stress, DNA microarray analysis was performed. We studied changes in gene expression after 10, 20, 30, 40 and 50 min of exposure to potassium sorbate in comparison to an untreated control. […] Changes in gene expression were studied using spotted oligo-arrays. The microarray consisted of 4100 gene specific 65-mer oligonucleotides, representing 4,100 of the 4,106 possible ORFs in B. subtilis (as reported for the B. subtilis genome at http://genolist.pasteur.fr/SubtiList/), spotted in duplo onto glass slides. Total RNA, isolated from the sorbate stressed and control cultures of each time-point, was labelled with the fluorescent dyes Cy5-dUTP and Cy3-dUTP respectively and hybridized onto the same slide. Biologically independent experiments were performed in duplo. […] Since the variation in differential expression measurements depends on the intensity (smaller variation at higher- and larger variation at lower fluorescence intensity levels), we applied an intensity-dependent method to identify differentially expressed genes (Yang et al., (2002)a, Genome Biol., 3: 0062). […] According to the KEGG (Kyoto Encyclopedia of Genes and Genomes, Kaneshisa M, et al (2006), Nucl. Acid Res., 34:354-357) database, this enzyme may also be involved in the degradation and biosynthesis of various metabolites, like arginine, proline, tyrosine, tryptophan and pyrine. […] YhcA is a possible multi-drug efflux pump and comprises of thirteen putative trans-membrane domains. YhcA is both a member of the drug resistance transporter EmrB/QacA subfamily and the major facilitator superfamily. […] We followed the growth by measuring the increase in OD600 and calculated growth inhibition percentages (Table 1). […] Table 1. Susceptibility of a selected mutant strain to sorbic acid stress.
(§2) All Bacillus subtilis strains used in this study are derivatives of the laboratory wild-type strain PB2 (kindly provided by C.W. Price) and are listed in Table 4. Mutant strains ATB002 (ureC), ATB007 (sigL) and ATB008 (sigM) were obtained by transformation of strain PB2 with chromosomal DNA of strains SF168U (Cruz-Ramos H., et al., (1997) J. Bacteriol., 179:3371-3373), QB5505 (Debarbouille M., et al., (1991), Proc. Natl. Acad. Sci., 181: 2059-2066) and AM1447 (Thackray PD and Moir A, (2003), J. Bacteriol., 185: 3491-3498), respectively. To obtain mutant strains ATB001 (fabHB), ATB003 (ycsF), ATB004 (yhcA), ATB005 (yhcB) and ATB006 (yxkJ), the wild-type strain PB2 was transformed with chromosomal DNA of strains YHFBd, YCSFd, YHCAd, YHCBd and YXKJd, respectively, which were all received from the Japanese Consortium for Functional Analysis of the B. subtilis Genome (JAFAN, http://bacillus.genome.ad.jp/). Transformants were selected on LB (Luria-Bertani) agar plates containing appropriate antibiotics, after overnight incubation at 37°C. Depending on the strain, the used antibiotics were chloramphenicol (6 µg/ml), erythromycin (0.5 µg/ml), spectinomycin (100 µg/ml) or kanamycin (10 µg/ml). Isolation of chromosomal DNA was performed according to Ward JB. (Ward JB et al, (1973), J. Bacteriol., 116: 719-726) and transformations were carried out as described by Kunst et al (Kunst F. et al, (1995) J. Bacteriol., 177: 2403-2407).

Experiment [2] deals with Bacillus subtilis wild-type strain PB2. As to the kind of experiment: microbe, parasite or virus in culture. As to the method:
as §1, §2

The test system of experiment [3] is wild type B.subtilis PB2. The conditions noted are these: concentrations of 30mM and 40mM KSorbate.
Experimental: On MB#1 first a test screen was performed on 15mM KSorbate.
The mutants and the wild type PB2 as a control were grown over night in liquid LB-media, pH6.4, 80mM MOPS and 100µg/ml spectinomycin (for the mutants only) at 37°C and 250rpm. The cultures were diluted to an OD600 of 0.2-0.25, grown to OD600=0.5 and again diluted to an OD600=0.020-0.025. At log-phase (OD600=0.2) a 200µl sample was taken, 10°fold to 10^-6fold diluted and ~5µl plated on the same LB-plates, pH6.4, 80mM MOPS containing 0mM, 15mM, 30mM and 40mM KSorbate. After 24h of incubation at 37°C pictures of the plates were taken.
The mark [4] stands for this setting: pH 6.4, read-out: GI% (growth inhibition).

As to `C/C=C/C=C/C(=O)[O-].[K+]` [Potassium sorbate, potassium sorbate], in experiment [1], the inhibition at 3000 µM turned out to be 45.1%, the inhibition at 6000 µM came to 50%, the inhibition at 15000 µM came to 72% and the inhibition at 30000 µM is 79.3%. In addition, in experiment [2] (setting [4]), the inhibition at 3000 µM turned out to be 26.1%, the inhibition at 6000 µM came to 40.7%, the inhibition at 15000 µM was determined as 63.6% and the inhibition at 30000 µM was 73.2%. Further, the inhibition of growth at 3000 µM in experiment [2] (read-out: reduction in the growth rate) worked out at 26%. For the same compound, the “growth of the wild type on sorbate plates” value in experiment [3] was “reduce the growth of the wild type”.
